Laboratory results reported in patent US10800792B2, “Inhibitors of Bruton's tyrosine kinase and method of their use” (JANSSEN PHARMACEUTICA NV, priority 2015, dated 2020).

biological target: unphosphorylated-BTK kinase domain (UP-BTK), GST-tagged human BTK (389-659aa) (Homo sapiens (Human), UniProt Q06187); assay: BTK kinase Lanthascreen binding assay; details: Lanthascreen tracer competition, 60 minutes incubation; pIC50 = negative log of the IC50 in molar
Procedure, shortened: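 A fluorescent tracer is bound to unphosphorylated BTK; test compound is added to compete it off; the Lanthascreen signal is read and IC50 is fitted, then reported as its negative log in molar.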

Sequence of unphosphorylated-BTK kinase domain (UP-BTK), GST-tagged human BTK (389-659aa) (Q06187 389-659): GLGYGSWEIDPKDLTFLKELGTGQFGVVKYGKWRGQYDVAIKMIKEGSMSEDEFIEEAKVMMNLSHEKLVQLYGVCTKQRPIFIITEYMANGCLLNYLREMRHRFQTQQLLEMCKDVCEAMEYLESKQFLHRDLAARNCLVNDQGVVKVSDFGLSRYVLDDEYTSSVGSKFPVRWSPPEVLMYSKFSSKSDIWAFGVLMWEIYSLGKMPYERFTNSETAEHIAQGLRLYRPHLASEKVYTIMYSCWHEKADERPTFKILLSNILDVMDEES

Compound | BTK_I_binding pIC50
O=C(N[C@@H]1CCCNC1)c1sc2nccc3c2c1NC(=O)N3c1ccc2c(c1)OC(F)(F)O2 [Example 636, (R)-5-(2,2-Difluorobenzo[d][1,3]dioxol-5-yl)-4-oxo-N-(piperidin-3-yl)-4,5-dihydro-3H-1-thia-3,5,8-triazaacenaphthylene-2-carboxamide] | 5.7
C=CC(=O)N1CCC[C@@H](NC(=O)c2sc3nccc4c3c2NC(=O)N4c2cnnc(-c3ccccc3)c2)C1 [Example 678, (R)—N-(1-Acryloylpiperidin-3-yl)-4-oxo-5-(6-phenylpyridazin-4-yl)-4,5-dihydro-3H-1-thia-3,5,8-triazaacenaphthylene-2-carboxamide] | 7.3
Cc1cc(OC(C)C)ncc1N1C(=O)Nc2c(C(=O)N[C@@H]3CCCNC3)sc3nccc1c23 (single isomer, unassigned) [Example 794, (R)-5-(*S)-(6-Isopropoxy-4-methylpyridin-3-yl)-4-oxo-N-(piperidin-3-yl)-4,5-dihydro-3H-1-thia-3,5,8-triazaacenaphthylene-2-carboxamide] | 6.5
O=C(N[C@@H]1CCCNC1)c1sc2nccc3c2c1NC(=O)N3c1cccc(-c2ccccn2)c1 [Example 622, (R)-4-Oxo-N-(piperidin-3-yl)-5-(3-(pyridin-2-yl)phenyl)-4,5-dihydro-3H-1-thia-3,5,8-triazaacenaphthylene-2-carboxamide] | <6
C=CC(=O)N1CC[C@@H](NC(=O)c2sc3nccc4c3c2NC(=O)N4c2cnc(Oc3ccccc3)cc2C)C1 (single isomer, unassigned) [Example 663, (R)—N-(1-Acryloylpyrrolidin-3-yl)-5-(*S)-(4-methyl-6-phenoxypyridin-3-yl)-4-oxo-4,5-dihydro-3H-1-thia-3,5,8-triazaacenaphthylene-2-carboxamide] | 8.0
CC(C)(C)OC(=O)N1CCC[C@@H](NC(=O)c2sc3nccc4c3c2NC(=O)N4c2cccc(C(C)(C)C)c2)C1 [Example 648, (R)-tert-Butyl 3-(5-(3-(tert-butyl)phenyl)-4-oxo-4,5-dihydro-3H-1-thia-3,5,8-triazaacenaphthylene-2-carboxamido)piperidine-1-carboxylate] | <5
C=CC(=O)N1CCN(c2sc3nccc4c3c2NC(=O)N4c2ccc(Oc3ccccc3)cc2C)CC1 [Example 796, 2-(4-Acryloylpiperazin-1-yl)-5-(2-methyl-4-phenoxyphenyl)-3H-1-thia-3,5,8-triazaacenaphthylen-4(5H)-one] | 6.3
COCCC(=O)N1CCC(NC(=O)c2sc3nccc4c3c2NC(=O)N4c2ccc(Oc3ccccc3)cc2)CC1 [Example 597, N-(1-(3-Methoxypropanoyl)piperidin-4-yl)-4-oxo-5-(4-phenoxyphenyl)-4,5-dihydro-3H-1-thia-3,5,8-triazaacenaphthylene-2-carboxamide] | 6.9
Cc1cc(Oc2cccc(COc3ccccc3C#N)c2)ccc1N1C(=O)Nc2c(C(=O)N[C@@H]3CCCN(C(=O)/C(C#N)=C/C4CC4)C3)sc3nccc1c23 [Example 861, (R,E)-N-(1-(2-Cyano-3-cyclopropylacryloyl)piperidin-3-yl)-5-(4-(3-((2-cyanophenoxy)methyl)phenoxy)-2-methylphenyl)-4-oxo-4,5-dihydro-3H-1-thia-3,5,8-triazaacenaphthylene-2-carboxamide] | 7.3
C=CC(=O)N1CCC[C@@H](NC(=O)c2sc3nccc4c3c2NC(=O)N4c2ccc(CC(C)C)cc2)C1 [Example 750, (R)—N-(1-Acryloylpiperidin-3-yl)-5-(4-isobutylphenyl)-4-oxo-4,5-dihydro-3H-1-thia-3,5,8-triazaacenaphthylene-2-carboxamide] | 6.6

same assay, conditions: Lanthascreen tracer competition, 60 minutes incubation; pIC50 = negative log of the IC50 in molar; read-out: BTK_I_binding pIC50 (converted)

Compound | IC50
C=CC(=O)N1CC(NC(=O)c2sc3nccc4c3c2NC(=O)N4c2ccc(Oc3ccccc3)cc2)C[C@@H](O)C1 (stereo in doubt) [Example 589, N-((3R,5R)-1-Acryloyl-5-hydroxypiperidin-3-yl)-4-oxo-5-(4-phenoxyphenyl)-4,5-dihydro-3H-1-thia-3,5,8-triazaacenaphthylene-2-carboxamide] | 7.94 nM

same assay, conditions: pIC50 = negative log of the IC50 in molar; 60 minutes incubation, 50 nM Tracer 236

Compound | BTK_I_binding pIC50
Cc1cc(Oc2ccccc2)ccc1N1C(=O)Nc2c(C(=O)N[C@@H]3CCCN(C(=O)C4CCOCC4)C3)sc3nccc1c23 [Example 219, (R)-5-(2-Methyl-4-phenoxyphenyl)-4-oxo-N-(1-(tetrahydro-2H-pyran-4-carbonyl)piperidin-3-yl)-4,5-dihydro-3H-1-thia-3,5,8-triazaacenaphthylene-2-carboxamide] | 6.9
O=C(N[C@@H]1CCCNC1)c1sc2nccc3c2c1NC(=O)N3c1c(F)cc(Oc2ccccc2)cc1F [Example 235, (R)-5-(2,6-difluoro-4-phenoxyphenyl)-4-oxo-N-(piperidin-3-yl)-4,5-dihydro-3H-1-thia-3,5,8-triazaacenaphthylene-2-carboxamide] | 7.0
C=CC(=O)N1CCC[C@@H](NC(=O)c2sc3nccc4c3c2NC(=O)N4c2ccc(OC)cc2)C1 [Example 254] | 6.6
C/C=C\C(=O)N1CCC[C@@H](NC(=O)c2sc3nccc4c3c2NC(=O)N4c2ccc(Oc3ccccc3)cc2C)C1 [Example 116, (R,Z)—N-(1-(But-2-enoyl)piperidin-3-yl)-5-(2-methyl-4-phenoxyphenyl)-4-oxo-4,5-dihydro-3H-1-thia-3,5,8-triazaacenaphthylene-2-carboxamide] | 7.2
Cc1cc(Oc2ccccc2)ccc1N1C(=O)Nc2c(C(=O)N[C@@H]3CCOC3)sc3nccc1c23 [Example 108, (R)-5-(2-Methyl-4-phenoxyphenyl)-4-oxo-N-(tetrahydrofuran-3-yl)-4,5-dihydro-3H-1-thia-3,5,8-triazaacenaphthylene-2-carboxamide] | 7.5
COC[C@@H](O)C(=O)N1CCC[C@@H](NC(=O)c2sc3nccc4c3c2NC(=O)N4c2ccc(Oc3ccccc3)cc2C)C1 [Example 143, N—((R)-1-((R)-2-Hydroxy-3-methoxypropanol)piperidin-3-yl)-5-(2-methyl-4-phenoxyphenyl)-4-oxo-4,5-dihydro-3H-1-thia-3,5,8-triazaacenaphthylene-2-carboxamide] | 7.3

same assay, conditions: unphosphorylated-BTK kinase domain, 50 nM Tracer 236, 60 minutes; pIC50 = negative log of the IC50 in molar

Compound | BTK_I_binding pIC50
O=C(N[C@@H]1CCCNC1)c1sc2nccc3c2c1NC(=O)N3c1cccc(Cc2ccccc2)c1 [Example 465, (R)-5-(3-Benzylphenyl)-4-oxo-N-(piperidin-3-yl)-4,5-dihydro-3H-1-thia-3,5,8-triazaacenaphthylene-2-carboxamide] | 6.2
C=CC(=O)N1C[C@H](NC(=O)c2sc3nccc4c3c2NC(=O)N4c2ccc(Oc3ccccc3)cc2)[C@@H](O)C1 [Example 463, N-((3S,4S)-1-Acryloyl-4-hydroxypyrrolidin-3-yl)-4-oxo-5-(4-phenoxyphenyl)-4,5-dihydro-3H-1-thia-3,5,8-triazaacenaphthylene-2-carboxamide] | 7.9
Cc1cc(Oc2ccccc2)ccc1N1C(=O)Nc2c(C(=O)N[C@@H]3CCCN(C(=O)/C(C#N)=C/C4(C)COC4)C3)sc3nccc1c23 (single isomer, unassigned) [Example 387, (R,E)-N-(1-(2-Cyano-3-(3-methyloxetan-3-yl)acryloyl)piperidin-3-yl)-5-(*R)-(2-methyl-4-phenoxyphenyl)-4-oxo-4,5-dihydro-3H-1-thia-3,5,8-triazaacenaphthylene-2-carboxamide] | 7.8
CNC/C=C/C(=O)N1CC[C@@H](NC(=O)c2sc3nccc4c3c2NC(=O)N4c2ccc(Oc3ccccc3)cc2C)C1 [Example 377, (R,E)-5-(2-Methyl-4-phenoxyphenyl)-N-(1-(4-(methylamino)but-2-enoyl)pyrrolidin-3-yl)-4-oxo-4,5-dihydro-3H-1-thia-3,5,8-triazaacenaphthylene-2-carboxamide] | 7.5
Cc1cc(Oc2ccccc2)ccc1N1C(=O)Nc2c(C(=O)N[C@@H]3CCNC(C)C3)sc3nccc1c23 (single isomer, unassigned) [Example 434, 5-(*S)-(2-Methyl-4-phenoxyphenyl)-N-((4*R)-2-methylpiperidin-4-yl)-4-oxo-4,5-dihydro-3H-1-thia-3,5,8-triazaacenaphthylene-2-carboxamide] | 7.3

same assay, conditions: unphosphorylated-BTK kinase domain, 50 nM Tracer 236, 60 minutes; pIC50 = negative log of the IC50 in molar; read-out: BTK_I_binding pIC50 (converted)

Compound | IC50
[2H]C([2H])([2H])N1CCC[C@@H](NC(=O)c2sc3nccc4c3c2NC(=O)N4c2ccc(Oc3ccccc3)cc2C)C1 [Example 370, (R)-5-(2-Methyl-4-phenoxyphenyl)-N-(1-trideuteriomethylpiperidin-3-yl)-4-oxo-4,5-dihydro-3H-1-thia-3,5,8-triazaacenaphthylene-2-carboxamide] | 100 nM

same assay, conditions: unphosphorylated-BTK kinase domain, 60 minutes incubation, 50 nM Tracer 236; pIC50 = negative log of the IC50 in molar

Compound | BTK_I_binding pIC50
CC(=O)N1CC[C@H](NC(=O)c2sc3nccc4c3c2NC(=O)N4c2ccc(Oc3ccccc3)cc2)C1 [Example 924, (S)—N-(1-Acetylpyrrolidin-3-yl)-4-oxo-5-(4-phenoxyphenyl)-4,5-dihydro-3H-1-thia-3,5,8-triazaacenaphthylene-2-carboxamide] | 6.3
Cc1cc(OC(C)C)ccc1N1C(=O)Nc2c(C(=O)N[C@@H]3CCCN(C(=O)/C=C/CN(C)C)C3)sc3nccc1c23 [Example 913, (R,E)-N-(1-(4-(Dimethylamino)but-2-enoyl)piperidin-3-yl)-5-(4-isopropoxy-2-methylphenyl)-4-oxo-4,5-dihydro-3H-1-thia-3,5,8-triazaacenaphthylene-2-carboxamide] | 6.5
O=C(NC1CCNC1)c1sc2nccc3c2c1NC(=O)N3c1ccc(Oc2ccccc2)cc1 (stereo in doubt) [Example 934, (S)-4-Oxo-5-(4-phenoxyphenyl)-N-(pyrrolidin-3-yl)-4,5-dihydro-3H-1-thia-3,5,8-triazaacenaphthylene-2-carboxamide] | 6.1
